According to a melting point compilation (Tetko et al.; mined from patent text by program, amines drawn as free bases though some values may be those of a salt):

Compared with O=C1c2ccccc2C(=O)N1CCn1ccnc1, N#Cc1ccc(OCCCn2ccnc2)cc1 is lower in melting point: 151 to 153 °C for the first, 60 to 61.5 °C for the second.

Compared with O=Cc1ccc(N(c2ccccc2)c2ccccc2)cc1, CCC(C)N(C)C(=O)c1nc(-c2ccccc2)c2ccccc2n1 (stereo not given) is lower in melting point: 129 to 130 °C for the first, 128 °C for the second.

Compared with CCCCc1nc2c(N)nc3ccccc3c2n1CCCNC(=O)NC1CCCCC1, CCCc1nc2c(N)nc(C)c(C)c2n1CCCCCS(=O)(=O)c1ccc(F)cc1 is lower in melting point: 200 to 201 °C for the first, 130 to 132 °C for the second.

First: CCCc1c(OCc2ccc(C(=O)O)cc2OC)ccc(C(C)=O)c1O
Second: CCCc1c(OCCCCC(=O)NCCCCc2cccnc2)ccc(C(C)=O)c1O
The melting point of the first is higher: 248 to 250 °C for the first, 76 to 78 °C for the second.

First: CSc1nccc(-c2nc(=O)c3ccccc3s2)n1
Second: COC(=O)c1ccc2c(c1)Sc1ccccc1N=C2Cl
The melting point of the first is higher: 224 °C for the first, 134 to 136 °C for the second.

Compared with CCOC(=O)c1ccc(OCC2CN(c3cccnn3)CCO2)cc1 (stereo not given), COC(=O)c1ccc(OCCCOc2cc3c(cc2O)CCO3)cc1 is higher in melting point: 110 °C for the first, 133 to 135 °C for the second.

Compared with O=[N+]([O-])c1ccc(NC2CC2)nc1Nc1ccc2[nH]ncc2c1, COc1ccc(C2=NN(Cc3ccncc3)C(=O)[C@H]3CCCC[C@@H]23)cc1OC (relative stereo) is lower in melting point: 237 to 240 °C for the first, 87 to 89 °C for the second.

First: CC(=O)c1c(O)cc(O)cc1O
Second: O=C(OCc1ccccc1O)c1cc(O)c2c(c1)C(=O)c1cccc(O)c1C2=O
The melting point of the first is higher: 218 to 219 °C for the first, 125 to 130 °C for the second.

First: COC(=O)c1sc(Cl)cc1N
Second: Cc1nc(-c2ccc(OC(C)C)c([N+](=O)[O-])c2)sc1C(=O)OC(C)C
The melting point of the first is higher: 99 to 101 °C for the first, 91 to 92 °C for the second.

First: CC(C)CC(C(=O)O)c1cc(Cl)c(-c2ccc(Cl)cc2)c(OCC2CC2)c1 (stereo not given)
Second: O=C(O)c1cc(S(=O)(=O)Nc2ccc(Cl)cc2Cl)ccc1Cl
The melting point of the first is lower: 52 to 53 °C for the first, 174 °C for the second.

First: CC(C)c1nc(O)c(Br)c(O)n1
Second: Cc1c(CC(=O)O)c2cc(OCc3ccc4ccccc4n3)ccc2n1C
The melting point of the first is higher: greater than 250 °C for the first, 186 to 188 °C for the second.

First: COCOCC1Oc2c(OC)cccc2C1=O (stereo not given)
Second: CCC1(CC)Oc2cc(OC)c(C#N)cc2[C@@H](N2CCCC2=O)[C@@H]1O (relative stereo)
The melting point of the first is lower: 71 to 72 °C for the first, 193 to 195 °C for the second.

Compared with Cc1cc(Cl)ccc1N=c1ssnc1Cl, Cc1ccc(C2=NOC(c3cc(Cl)cc(Cl)c3)(C(F)(F)F)C2)cc1Cl (stereo not given) is lower in melting point: 130 to 131 °C for the first, 97 to 99 °C for the second.

Compared with Nc1nc(NCCC2=CCCCC2)nc2c1ncn2C1OC(CO)C(O)C1O (stereo not given), CC(C)(C)C(=O)OCn1cnc2c(OCc3ccccc3)nc(N)nc21 is higher in melting point: 135 to 138 °C for the first, 161 to 162 °C for the second.

Compared with COc1ccc(-c2nc(-c3cccn3CC(=O)OC(C)C(C)C)sc2-c2ccc(OC)cc2)cc1 (stereo not given), COc1ccc2nc(COc3ccc(CC(C)C(N)=S)cc3)n(C)c2c1 (stereo not given) is higher in melting point: 88.5 to 91.5 °C for the first, 204 to 206 °C for the second.

First: Cc1c(C)c2c(c(C)c1NC(=O)CCC(F)(F)F)C(c1ccc(C(C)C)cc1)CO2 (stereo not given)
Second: Cc1c(C)c2c(c(C)c1NC(=O)CC(C)(C)C)C(c1ccccc1)CO2 (stereo not given)
The melting point of the first is higher: 206 to 207 °C for the first, 146 to 147 °C for the second.

First: CCCCCCc1ccc(-c2ncc(C#N)c(Cl)n2)cc1
Second: CCC(CC)c1nn(-c2ccc(C(F)(F)F)cn2)cc1CCCOc1ccccc1CC(=O)O
The melting point of the first is higher: 80.3 to 80.5 °C for the first, 65 to 66 °C for the second.

First: O=C1NC(=O)C(Cc2ccc(C(=O)COc3ccccc3)cc2)S1 (stereo not given)
Second: N#CCOc1cccc(CN2C(=O)c3cccc(NC(=O)c4ccc(Cl)s4)c3C2=O)c1
The melting point of the first is higher: 170 to 174 °C for the first, 164 °C for the second.

First: O=C(c1ccccc1)c1cc2c(s1)S(=O)(=O)CCc1cc(=O)n(-c3ccc(Cl)cc3)nc1-2
Second: O=C(NCc1ccc2c(c1)OCO2)c1ccc2[nH]c(=O)n(Cc3ccc(Cl)cc3)c(=O)c2c1
The melting point of the first is lower: 254 to 256 °C for the first, 290 °C for the second.

First: CN1CCCCC1COC(=O)c1cccc(NC(=O)C(CS)Cc2ccccc2)c1 (stereo not given)
Second: Nc1cccc2[nH]c3c(c12)CCN(Cc1ccccc1)CC3
The melting point of the first is lower: 68 to 69 °C for the first, 164 to 165 °C for the second.

Compared with CCCCC(=O)Nc1ccc(C(F)(F)F)c(-n2nc(CC)n(Cc3ccc(-c4ccccc4S(=O)(=O)NC(=O)OC(C)(C)C)cc3F)c2=O)c1, CNC(=O)C1CN(CC(=O)Nc2c(C)cc(C)cc2C)CCN1CCCC(c1ccc(F)cc1)c1ccc(F)cc1 (stereo not given) is lower in melting point: 121 to 123 °C for the first, 82.3 °C for the second.

First: COc1ccc(C(=O)CCC(=O)c2ccc(OC)c(OC)c2)cc1OC
Second: COc1cc(C(=O)O)ccc1OC(=O)c1ccc(OC)c(C23CC4CC(CC(C4)C2)C3)c1
The melting point of the first is lower: 181 to 182 °C for the first, 282 to 284 °C for the second.

First: CC(C)(C)c1cc(C=[N+]([O-])C(C)(C)C)c(O)c(C(C)(C)C)c1
Second: O=c1oc(-c2ccccc2)cc(O)c1C(CC1CC1)SCc1ccccc1 (stereo not given)
The melting point of the first is higher: 235 °C for the first, 59 to 61 °C for the second.

Compared with Cc1nccn1-c1ccc(COc2cccc(C3(C(N)=O)CCCC3)c2)cc1, Cn1nc(C(=O)O)cc1OCCCN1CCN(c2cccc3sccc23)CC1 is lower in melting point: 163 to 164 °C for the first, 114 to 118 °C for the second.

First: O=c1c2ccccc2ncn1C1CCN(Cc2ccccc2)CC1
Second: Clc1ccc2c(NCCCN3CCCCC3)ccnc2c1
The melting point of the first is higher: 147 °C for the first, 113 to 116 °C for the second.
